Source: patent publication US12559750B2, “Methods and compositions for treatment of polycystic kidney disease” (Regulus Therapeutics Inc., priority 2021, dated 2026)

Key:
AMPA-R = experiment: [3H]AMPA radioligand binding assay on rat brain synaptic membranes; settings: for % Inhibition @ Concentration 100 uM: Table 8 (3′-terminal nucleobase/sugar variants); for % Inhibition @ Concentration 0.1 uM: Table 8, 0.1 uM; for % Inhibition @ Concentration 1 uM: Table 8, 1 uM; for % Inhibition @ Concentration 10 uM: Table 8, 10 uM;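 as to all read-outs here: competition binding in which test compounds at rising concentrations displace [3H]AMPA from AMPA-R on rat brain synaptic membranes, with reduced bound radioligand as read-out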
AMPA-R (GluA1/GluA4) = molecular target: T1, AMPA-R (GluA1/GluA4) (Homo sapiens, UniProt P42261+P48058); experiment: Manual whole-cell patch clamp, ChanTest GluA1/GluA4 EZCells; format: cell-based
T1 construct: host or cells: ChanTest GluA1/GluA4 EZCells
T1 sequence (P42261 19-906): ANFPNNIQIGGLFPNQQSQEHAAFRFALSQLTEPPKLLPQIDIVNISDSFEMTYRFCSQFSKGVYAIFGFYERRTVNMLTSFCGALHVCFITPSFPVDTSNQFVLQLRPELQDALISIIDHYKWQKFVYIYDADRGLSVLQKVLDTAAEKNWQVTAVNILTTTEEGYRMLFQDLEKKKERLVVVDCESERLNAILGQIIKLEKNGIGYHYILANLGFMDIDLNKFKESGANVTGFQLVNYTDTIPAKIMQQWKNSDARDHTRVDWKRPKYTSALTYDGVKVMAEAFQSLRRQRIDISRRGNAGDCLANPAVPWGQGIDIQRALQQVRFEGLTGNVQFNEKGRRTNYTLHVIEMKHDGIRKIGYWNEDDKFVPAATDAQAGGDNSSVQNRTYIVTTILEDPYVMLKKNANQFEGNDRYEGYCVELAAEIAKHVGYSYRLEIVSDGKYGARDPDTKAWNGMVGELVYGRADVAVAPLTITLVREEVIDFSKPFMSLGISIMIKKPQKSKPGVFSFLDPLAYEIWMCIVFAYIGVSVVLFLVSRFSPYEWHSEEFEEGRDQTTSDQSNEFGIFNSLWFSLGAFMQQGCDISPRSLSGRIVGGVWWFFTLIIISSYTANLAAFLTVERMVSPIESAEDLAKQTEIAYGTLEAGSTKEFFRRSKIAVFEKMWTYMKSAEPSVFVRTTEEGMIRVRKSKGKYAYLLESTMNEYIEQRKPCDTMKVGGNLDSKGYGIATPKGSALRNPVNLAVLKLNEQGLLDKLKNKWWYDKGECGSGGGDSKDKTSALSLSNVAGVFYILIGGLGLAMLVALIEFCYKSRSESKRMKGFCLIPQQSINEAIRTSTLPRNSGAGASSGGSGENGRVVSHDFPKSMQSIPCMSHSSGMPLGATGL
T1 sequence (P48058 21-902): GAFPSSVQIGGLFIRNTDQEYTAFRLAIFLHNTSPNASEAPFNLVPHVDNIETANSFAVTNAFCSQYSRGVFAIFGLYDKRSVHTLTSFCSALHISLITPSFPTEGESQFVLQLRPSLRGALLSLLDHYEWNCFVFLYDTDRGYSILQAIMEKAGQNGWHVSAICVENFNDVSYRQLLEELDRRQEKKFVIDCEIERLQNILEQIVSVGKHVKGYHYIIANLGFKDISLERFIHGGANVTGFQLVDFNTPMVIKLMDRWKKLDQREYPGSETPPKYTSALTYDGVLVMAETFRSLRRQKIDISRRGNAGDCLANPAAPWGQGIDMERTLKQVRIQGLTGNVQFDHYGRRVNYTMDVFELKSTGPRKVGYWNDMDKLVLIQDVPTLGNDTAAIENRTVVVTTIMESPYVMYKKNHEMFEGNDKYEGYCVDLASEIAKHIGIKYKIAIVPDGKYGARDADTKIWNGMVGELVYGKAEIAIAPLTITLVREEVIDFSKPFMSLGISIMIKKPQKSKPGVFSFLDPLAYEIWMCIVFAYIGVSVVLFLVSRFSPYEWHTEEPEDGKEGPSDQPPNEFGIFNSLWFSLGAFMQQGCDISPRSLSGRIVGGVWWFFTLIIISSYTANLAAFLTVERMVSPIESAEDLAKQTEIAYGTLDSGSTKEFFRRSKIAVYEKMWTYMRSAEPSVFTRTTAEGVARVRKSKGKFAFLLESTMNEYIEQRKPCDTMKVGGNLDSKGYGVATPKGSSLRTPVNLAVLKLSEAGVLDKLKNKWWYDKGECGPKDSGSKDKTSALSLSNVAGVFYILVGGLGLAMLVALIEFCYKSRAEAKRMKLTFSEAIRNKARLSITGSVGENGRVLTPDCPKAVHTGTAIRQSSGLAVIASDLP
Procedure: To evaluate functional antagonism of anti-miR-17 oligonucleotides towards the AMPA-R, certain oligonucleotides were tested using the manual whole-cell patch clamp technique, which records membrane currents as a measure of AMPA-R activity.
Manual whole-cell patch clamp studies were performed by Metrion Biosciences (Cambridge, UK). Whole-cell voltage clamp experiments were performed at room temperature (18-21° C.) using an EPC10 patch clamp amplifier using Patchmaster software (HEKA Elektronik). Glass patch pipettes were fabricated from borosilicate glass capillaries (Harvard Apparatus) to resistances between 1.4 and 2.5 MΩ. Membrane currents were recorded using the whole-cell patch clamp technique. ChanTest® GluA1/GluA4 EZCells were clamped at a holding potential of −80 mV and membrane currents elicited by 10 μM(S)-AMPA delivered using a VC38 perfusion system (ALA Scientific Instruments). The […] current amplitude values were measured with each application of 10 μM(S)-AMPA. The fractional change of current amplitude produced by each concentration of compound was calculated relative to the control current (pre-compound) and expressed as percentage change (% inhibition) for each cell. RGLS4326 was tested in a separate study from all other compounds in Table 6.

miR-17 [1] = experiment: miR-17 luciferase sensor assay in HeLa cells; format: cell-based; settings: for EC50: HeLa cells, 18- to 24-hour transfection
Procedure: The in vitro potency of certain compounds was evaluated using a miR-17 luciferase sensor assay which uses a luciferase reporter vector for miR-17, with two fully complementary miR-17 binding sites in tandem in the 3′-UTR of the luciferase gene. HeLa cells were co-transfected with the luciferase reporter vector and an exogenous miR-17-expression vector that acted to repress the luciferase signal.

miR-17 [2] = experiment: miR-17 PD-Sig in mouse kidney cell lines; format: cell-based
Procedure: The activity of certain compounds was evaluated using a mouse miR-17 Pharmacodynamic-Signature (miR-17 PD-Sig), which consists of the expression of 18 unique miR-17 target genes normalized by six reference housekeeping genes, to provide an unbiased and comprehensive assessment of miR-17 activity. The mouse miR-17 PD-Sig score was the calculated average of the 18 genes' individual log 2 fold changes (normalized by six housekeeping genes) compared to mock transfection (Lee et al., Nat. Commun., 2019, 10, 4148).
The PD-Sig for RGLS4326 in mIMCD3 cells (77.2, indicated by “*”) was not generated in this experiment; the value in Table 14 is that reported by Lee et al., Nat. Commun., 2019, 10, 4148. Blank cells in the table indicate that a compound was not tested in a particular cell line.

miR-17 [3] = experiment: miR-17 PD-Sig in human kidney cell lines; format: cell-based
miR-17 [4] = experiment: microRNA polysome shift assay (miPSA) in kidney of wild type mice; format: in vivo, mouse; parameters: scale not given here; settings: seven days later
Procedure: In vivo potency was evaluated using the microRNA polysome shift assay (miPSA). This assay was used to determine the extent to which compounds directly engage the miR-17 target in the kidney in normal and PKD mice. The miPSA relies on the principle that active miRNAs bind to their mRNA targets in translationally active high molecular weight (HMW) polysomes, whereas the inhibited miRNAs reside in the low MW (LMW) polysomes. Treatment with anti-miR results in a shift of the microRNA from HMW polysomes to LMW polysomes. Thus, the miPSA provides a direct measurement of microRNA target engagement by a complementary anti-miR (Androsavich et al., Nucleic Acids Research, 2015, 44: e13).
Wild type mice were administered a single dose of 0.3 mg/kg, 3 mg/kg, or 30 mg/kg. Kidney tissue was collected seven days later and subjected to the miPSA. The mean displacement score for each treatment is shown in Table 15 (PBS, n=17; RGLS4326 30 mg/kg, n=10; all other treatments, n=4-5). The tested oligonucleotides displaced miR-17 from translationally active polysome (as measured by miPSA) in normal mouse kidneys.

[5] = test system: KspCre/Pkd1F/RC (Pkd1-F/RC) mice; experiment: Efficacy in Pkd1-F/RC mouse model of ADPKD; format: in vivo; settings: 20 mg/kg SC on days 8, 10, 12, 15 of age; for Mean BW/KW Ratio / Mean Serum BUN / Mean Serum Creatine: sacrificed at 18 days
Procedure: Mice were sacrificed at 18 days of age, and kidney weight, body weight, cyst index, serum creatinine level, and blood urea nitrogen (BUN) level were measured. BUN level is a marker of kidney function. A higher BUN level correlates with poorer kidney function, thus a reduction in BUN level is an indicator of reduced kidney injury and damage and improved function. Statistical significance was calculated by one-way ANOVA with Dunnett's multiple correction.

mice = experiment: High-dose subcutaneous mouse toxicity studies, CNS-related findings; settings: for CNS toxicity in high-dose mouse toxicity studies: single 2000 mg/kg and/or escalating doses 100, 450, 2000 mg/kg, in words
Procedure: Each compound was tested in a single dose at 2000 mg/kg, and at escalating doses (100, 450, and 2000 mg/kg).

Row | Sequence | IC50 (AMPA-R; Experiment #2) [nM] | % Inhibition @ 0.1 uM (AMPA-R; Experiment #2, 0.1 uM) [%] | % Inhibition @ 1 uM (AMPA-R; Experiment #2, 1 uM) [%] | % Inhibition @ 10 uM (AMPA-R; Experiment #2, 10 uM) [%] | % Inhibition @ 100 uM (AMPA-R; Experiment #2, 100 uM) [%] | IC50 (AMPA-R; Table 8) [nM] | % Inhibition @ Concentration 100 uM (AMPA-R) [%] | % Inhibition @ Concentration 0.1 uM (AMPA-R) [%] | % Inhibition @ Concentration 1 uM (AMPA-R) [%] | % Inhibition @ Concentration 10 uM (AMPA-R) [%] | % Inhibition on membrane currents evoked with 10 uM (s)-AMPA (Mean ± SD) (AMPA-R (GluA1/GluA4); 0.3 uM compound) [%] | % Inhibition on membrane currents evoked with 10 uM (s)-AMPA (Mean ± SD) (AMPA-R (GluA1/GluA4); 3 uM compound) [%] | Log2FC (37.5 nM) (miR-17 [1]) | EC50 (miR-17 [1]) [nM] | EC50 (miR-17 [2]; D52B5, mouse, PKD) [nM] | EC50 (miR-17 [3]; HK-2, human, Normal) [nM] | EC50 (miR-17 [3]; WT9-7, human, PKD) [nM] | miPSA Displacement Score, Mean (miR-17 [4]; single dose 3 mg/kg) | miPSA Displacement Score, Mean (miR-17 [4]; single dose 30 mg/kg) | miPSA Displacement Score, Mean (miR-17 [4]; single dose 0.3 m/kg) | other results
1 | ASGSCMAFCFUFUMUSAS [RG-NG-1015] | > 100000 | 2.3 | 11 | 6.5 | 19.9 | ≥ 100000 | 5.6 | −0.8 | −10.3 | −7 | 16.0 ± 5.0 | 39.5 ± 5.4 | 2.51 | 22.4 | 82.4 | 55.6 | 21.2 | 2.562 | 2.718 | 2.238 | functional antagonism towards AMPA-R relative to RGLS4326 (AMPA-R (GluA1/GluA4); in words): reduced functional antagonism towards AMPA-R; EC50 (miR-17 [2]; mIMCD3, mouse, Normal): 168 nM; BW/KW Ratio, Mean Difference vs. PBS [5]: −48.79; Serum BUN, Mean Difference vs. PBS [5]: −20.21; Serum Creatine, Mean Difference vs. PBS [5]: −0.034; Mean BW/KW Ratio [5]: 16.83; Mean Serum BUN [5]: 22.26; Mean Serum Creatine [5]: 0.1279; CNS-related findings noted (mice; SC 2000 mg/kg, Single): No; CNS-related findings noted (mice; SC 100, 450, 2000 mg/kg/dose, QDx4): No; CNS toxicity in high-dose mouse toxicity studies (mice): no CNS-toxicity were observed
2 | ASGSCMAFCFUFUMUSGS [RGLS4326, reference compound] | 270 | 31.5 | 73.1 | 93.6 | 96.8 | 1610 | 99.7 | −0.1 | 40.8 | 83.5 | 46.9 ± 9.8 | 87.4 ± 7.9 | 2.70 | 18.5 | 92.8 | 47.8 | 17.3 | 2.247 | 2.362 | 1.846 | IC50 (AMPA-R; Experiment #1): 700 nM; % Inhibition @ 0.1 uM (AMPA-R; Experiment #1, 0.1 uM): 17.6%; % Inhibition @ 1 uM (AMPA-R; Experiment #1, 1 uM): 55.5%; % Inhibition @ 10 uM (AMPA-R; Experiment #1, 10 uM): 93%; % Inhibition @ 100 uM (AMPA-R; Experiment #1, 100 uM): 104.1%; IC50 (AMPA-R; Experiment #3): 780 nM; % Inhibition @ 0.1 uM (AMPA-R; Experiment #3, 0.1 uM): 14.6%; % Inhibition @ 1 uM (AMPA-R; Experiment #3, 1 uM): 55.8%; % Inhibition @ 10 uM (AMPA-R; Experiment #3, 10 uM): 89%; % Inhibition @ 100 uM (AMPA-R; Experiment #3, 100 uM): 97.2%; BW/KW Ratio, Mean Difference vs. PBS [5]: −48.8; Serum BUN, Mean Difference vs. PBS [5]: −20.06; Serum Creatine, Mean Difference vs. PBS [5]: −0.03463; Mean BW/KW Ratio [5]: 16.81; Mean Serum BUN [5]: 22.41; Mean Serum Creatine [5]: 0.1273; CNS toxicity in high-dose mouse toxicity studies (mice): ataxia, lethargy, and in the case of RGLS4326, unconsciousness at the highest dose
